Common to all, as to test: inhibition of tumour cell growth, NCI panel, 48 h
Assay [1] deals with BT-549 breast.
Assay [2] relates to SNB-75 CNS.
Assay [3] concerns K-562 leukemia.
For assay [4], the system named is HCT-116 colon.
Assay [5] relates to OVCAR-8 ovarian.
In assay [6] the test system is LOX IMVI melanoma.
Assay [7] deals with 786-0 renal.
Assay [8] has as its system EKVX NSCLC.
Assay [9] concerns SK-MEL-2 melanoma.
The subject of assay [10] is SF-268 CNS.

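48-hour exposure; five concentrations; linearly interpolated endpoints. GI50 = concentration required for 50% inhibition of growth. TGI denotes the concentration required for complete inhibition of growth.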

As to `O=C1C(Cl)=C(Nc2cc(Cl)ccc2O)C(=O)N1Cc1ccccc1`, the GI50 is 20.5 µM in assay [1]; 27.5 µM in [2]; 23.7 µM in [3]; 19.4 µM in assay [4]; 17.5 µM in [5]; 16.7 µM in assay [6]. Further, the GI50 is 18.2 µM in [7], 21.3 µM in assay [8], 20.3 µM in assay [9] and 17.5 µM in assay [10]. Further, the TGI is 44.3 µM in [1]; 64.6 µM in assay [2]; 65.3 µM in assay [3]; 35.6 µM in assay [4]; 36.4 µM in assay [5]; 32.2 µM in assay [6]. For the same molecule, the TGI in assay [7] was determined as 33 µM; in assay [8] it was 50.5 µM; in [9], 53.3 µM; in assay [10], 35 µM.
Turning to `[Cl][Hg][c]1ccc2ccccc2c1`, the GI50 in [1] was 1.46 µM; in [2] it was 2.24 µM; in assay [3], 0.862 µM; in assay [4], 3.18 µM; in assay [5], 2.32 µM; in [6], 0.284 µM. The GI50 in assay [7] was 1.76 µM; in assay [8] it was 3.07 µM; in assay [9], 1.6 µM; in assay [10] it was 2.22 µM. Besides, the TGI is 2.82 µM in assay [1]; 5.79 µM in [2]; 9.77 µM in assay [3]; 7.59 µM in assay [4]; 6.17 µM in [5]; 1.97 µM in [6]. Also, the TGI in assay [7] was 3.21 µM; in [8] it was 7.96 µM; in [9], 3.92 µM; in [10], 5.91 µM.
Consider `Cn1c2c(c3ccccc3c1=O)C(=O)c1ccccc1-2`, for which the TGI in assay [1], in [2], in assay [3], in [4], in [5] and in [6] was over 100 µM in each case. Besides, the TGI in assay [7], in assay [8], in assay [9] and in assay [10] was over 100 µM in each case.
As to `CCCCSc1nc(N)c2cn[nH]c2n1`, the GI50 is 20.1 µM in [1]; 26.4 µM in [2]; 29.7 µM in assay [3]; 14.1 µM in [4]; 23.2 µM in assay [5]; 29.9 µM in assay [6]. For the same molecule, the GI50 in assay [7] was 21.2 µM; in assay [8], 15.6 µM; in assay [9] it was 22.2 µM; in [10], 22.2 µM. In addition, the TGI in assay [1] is 43.2 µM; in assay [2], 69 µM; in [3], over 100 µM; in assay [4], 34.8 µM; in [5], over 60.4 µM; in assay [6] it was over 88.6 µM. Further, the TGI in assay [7] was 57.3 µM; in assay [8], 57.3 µM; in assay [9], over 64.6 µM; in assay [10] it was over 59.4 µM.
Consider `COc1ccc(/C=C2\COc3ccc(O)c(O)c3C2=O)cc1OC`, for which the GI50 in [1] was 1.32 µM; in assay [2], 1.98 µM; in [3] it was 0.467 µM; in assay [4], 1.47 µM; in [5], 1.68 µM; in assay [6], 1.12 µM. Moreover, the GI50 is 1.51 µM in assay [7], 2.76 µM in assay [8], 2.02 µM in assay [9] and 1.7 µM in [10]. Besides, the TGI in [1] was 3.25 µM; in assay [2] it was 29.1 µM; in assay [3], over 100 µM; in [4] it was 3.61 µM; in [5], 15.7 µM; in assay [6] it was 2.54 µM. Further, the TGI in assay [7] is 3.87 µM; in assay [8] it was 18.8 µM; in assay [9], 5.28 µM; in [10], 5.64 µM.
Regarding `CC(=O)c1ccc2c3c1[C@H]1O[C@H]1c1cccc(c1-3)[C@@H]1O[C@H]21`, the TGI in assay [1] was 4.53 µM; in assay [2] it was 6.12 µM; in [3], over 35.2 µM; in assay [4], 3.87 µM; in assay [5], 3.49 µM; in assay [6], 1.2 µM. The TGI in [7] is 4 µM; in assay [8], 4.03 µM; in assay [9], over 100 µM; in assay [10], 3.86 µM. In addition, the GI50 in assay [7] is 1.74 µM; in assay [9], 3.79 µM.
For `O=C1c2ccn(CCCNC(CO)(CO)CO)c2C(=O)c2c1c(O)c1ccccc1c2O`, the GI50 in assay [1] is 43.9 µM; in assay [2], over 75.2 µM; in [3], 9.36 µM; in assay [4], 1.9 µM; in [5], 15 µM; in assay [6], 13.1 µM. Also, the GI50 in [7] was 7.94 µM; in assay [8] it was 49.7 µM; in [9], 23.1 µM; in assay [10] it was 24.2 µM. Moreover, the TGI in assay [1] was over 90.2 µM; in assay [2], over 100 µM; in [3], 90.1 µM; in assay [4], 13.9 µM; in [5] it was 36.9 µM; in assay [6], 29.7 µM. Also, the TGI is 26.9 µM in assay [7], over 100 µM in assay [8], 68.8 µM in assay [9] and over 100 µM in [10].
For `CSc1ccc(NC(=O)Nc2cc(C)ccn2)cc1`, the TGI in assay [1], in [2], in [3], in assay [4], in [5] and in [6] was over 100 µM each time. The TGI in assay [7], in assay [8], in assay [9] and in assay [10] was over 100 µM throughout.

Source of the values: PubChem BioAssay (NCI).
